Where a name gives a salt, the structure may show the parent alone.
What was measured:
Assay in all cases: automated whole-cell patch clamp (PatchXpress), peak current
Format in all cases: cell-based
Kv 1.2 = molecular target: T1, Kv 1.2 (Homo sapiens, UniProt P16389)
T1 construct: gene KCNA2; cDNA stably transfected in HEK293 cells; expressed alone (homotetramer)
Excerpt: automated whole-cell patch clamp (PatchXpress), peak current on Kv 1.2

Kv 1.4 = molecular target: T2, Kv 1.4 (Homo sapiens, UniProt P22459)
T2 construct: gene KCNA4; cDNA stably transfected in HEK293 cells; expressed alone (homotetramer)
Excerpt: automated whole-cell patch clamp (PatchXpress), peak current on Kv 1.4

Kv 1.1 = molecular target: T3, Kv 1.1 (Homo sapiens, UniProt Q09470)
T3 construct: gene KCNA1; cDNA stably transfected in HEK293 cells; expressed alone (homotetramer)
Excerpt: automated whole-cell patch clamp (PatchXpress), peak current on Kv 1.1

T2 sequence (P22459 whole entry): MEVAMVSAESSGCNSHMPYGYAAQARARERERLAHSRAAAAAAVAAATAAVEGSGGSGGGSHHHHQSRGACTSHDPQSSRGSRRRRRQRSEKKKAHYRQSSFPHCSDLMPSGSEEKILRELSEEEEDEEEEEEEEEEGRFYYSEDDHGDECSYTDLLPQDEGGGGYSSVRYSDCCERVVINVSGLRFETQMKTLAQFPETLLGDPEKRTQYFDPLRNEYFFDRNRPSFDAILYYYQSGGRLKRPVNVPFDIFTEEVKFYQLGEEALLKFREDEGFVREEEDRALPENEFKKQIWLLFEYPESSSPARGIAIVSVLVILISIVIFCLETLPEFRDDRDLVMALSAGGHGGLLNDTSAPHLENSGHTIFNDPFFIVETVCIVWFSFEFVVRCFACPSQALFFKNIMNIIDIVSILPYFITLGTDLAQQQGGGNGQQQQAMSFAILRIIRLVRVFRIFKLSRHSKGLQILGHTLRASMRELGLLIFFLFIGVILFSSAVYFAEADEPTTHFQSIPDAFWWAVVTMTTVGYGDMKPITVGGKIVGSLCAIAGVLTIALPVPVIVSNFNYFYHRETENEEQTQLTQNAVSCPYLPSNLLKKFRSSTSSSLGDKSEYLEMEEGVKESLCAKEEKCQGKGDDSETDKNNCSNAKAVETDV
T3 sequence (Q09470 whole entry): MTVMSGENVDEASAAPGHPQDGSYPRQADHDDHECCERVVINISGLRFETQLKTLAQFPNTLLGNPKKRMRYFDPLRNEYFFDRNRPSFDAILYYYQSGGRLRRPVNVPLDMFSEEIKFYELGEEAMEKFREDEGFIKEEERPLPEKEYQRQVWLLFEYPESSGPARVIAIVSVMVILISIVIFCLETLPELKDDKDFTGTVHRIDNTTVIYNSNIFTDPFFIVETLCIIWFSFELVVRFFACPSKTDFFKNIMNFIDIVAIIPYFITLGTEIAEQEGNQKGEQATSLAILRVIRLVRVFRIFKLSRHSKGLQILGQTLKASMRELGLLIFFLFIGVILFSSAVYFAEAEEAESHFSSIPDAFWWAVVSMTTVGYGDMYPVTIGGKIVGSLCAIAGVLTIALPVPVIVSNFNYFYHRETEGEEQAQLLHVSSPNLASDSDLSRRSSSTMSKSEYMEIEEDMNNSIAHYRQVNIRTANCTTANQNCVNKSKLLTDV
T1 sequence (P16389 whole entry): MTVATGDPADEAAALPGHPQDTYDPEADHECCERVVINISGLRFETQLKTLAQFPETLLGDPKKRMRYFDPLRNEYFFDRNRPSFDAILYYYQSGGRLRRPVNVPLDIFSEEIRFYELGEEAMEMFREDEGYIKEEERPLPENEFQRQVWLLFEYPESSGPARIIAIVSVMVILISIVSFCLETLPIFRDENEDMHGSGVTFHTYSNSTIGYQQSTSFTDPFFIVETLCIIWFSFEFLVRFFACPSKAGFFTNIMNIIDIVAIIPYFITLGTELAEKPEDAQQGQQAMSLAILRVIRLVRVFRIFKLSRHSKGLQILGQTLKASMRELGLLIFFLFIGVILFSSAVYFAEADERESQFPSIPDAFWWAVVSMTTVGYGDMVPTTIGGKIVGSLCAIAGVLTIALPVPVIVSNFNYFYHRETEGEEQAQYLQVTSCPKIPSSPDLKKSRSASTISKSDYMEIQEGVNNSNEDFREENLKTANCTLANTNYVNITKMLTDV

IC50 (Kv 1.2) | IC50 (Kv 1.4) | IC50 (Kv 1.1) | SMILES
21400 µM | > 50000 µM | 30300 µM | Nc1ccncc1OS(=O)(=O)O [3-hydroxy-4-aminopyridine sulfate]
23700 µM | 23200 µM | 7890 µM | Nc1ccncc1O [3-hydroxy-4-aminopyridine]

Source: PMC4937658, “Effects of dalfampridine and its metabolites on cloned human potassium channels Kv 1.1, Kv 1.2, and Kv 1.4 expressed in human embryonic kidney cells” (Journal of Drug Assessment, 2013)
